From PubChem BioAssay AID1645866 (Buhrlage Lab, Dana-Farber Cancer Institute and Novartis …, 2021)
pIC50: −log10 of the molar value. Active and inactive are the calls of the source.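 The calls were made as follows: active = in confirmatory dose-response testing, peak deubiquitinase inhibition of 30% or more; inactive = the rest.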

target: Ubiquitin carboxyl-terminal hydrolase 28 (Homo sapiens) (UniProt Q96RU2); test: Concentration-response biochemical assay confirming initial hits as inhibitors of ubiquitin-specific protease 28 (AID 1645866); conditions: purified USP28, ubiquitin-rhodamine fluorescence, 30 min
Sequence (Q96RU2 whole entry, looked up): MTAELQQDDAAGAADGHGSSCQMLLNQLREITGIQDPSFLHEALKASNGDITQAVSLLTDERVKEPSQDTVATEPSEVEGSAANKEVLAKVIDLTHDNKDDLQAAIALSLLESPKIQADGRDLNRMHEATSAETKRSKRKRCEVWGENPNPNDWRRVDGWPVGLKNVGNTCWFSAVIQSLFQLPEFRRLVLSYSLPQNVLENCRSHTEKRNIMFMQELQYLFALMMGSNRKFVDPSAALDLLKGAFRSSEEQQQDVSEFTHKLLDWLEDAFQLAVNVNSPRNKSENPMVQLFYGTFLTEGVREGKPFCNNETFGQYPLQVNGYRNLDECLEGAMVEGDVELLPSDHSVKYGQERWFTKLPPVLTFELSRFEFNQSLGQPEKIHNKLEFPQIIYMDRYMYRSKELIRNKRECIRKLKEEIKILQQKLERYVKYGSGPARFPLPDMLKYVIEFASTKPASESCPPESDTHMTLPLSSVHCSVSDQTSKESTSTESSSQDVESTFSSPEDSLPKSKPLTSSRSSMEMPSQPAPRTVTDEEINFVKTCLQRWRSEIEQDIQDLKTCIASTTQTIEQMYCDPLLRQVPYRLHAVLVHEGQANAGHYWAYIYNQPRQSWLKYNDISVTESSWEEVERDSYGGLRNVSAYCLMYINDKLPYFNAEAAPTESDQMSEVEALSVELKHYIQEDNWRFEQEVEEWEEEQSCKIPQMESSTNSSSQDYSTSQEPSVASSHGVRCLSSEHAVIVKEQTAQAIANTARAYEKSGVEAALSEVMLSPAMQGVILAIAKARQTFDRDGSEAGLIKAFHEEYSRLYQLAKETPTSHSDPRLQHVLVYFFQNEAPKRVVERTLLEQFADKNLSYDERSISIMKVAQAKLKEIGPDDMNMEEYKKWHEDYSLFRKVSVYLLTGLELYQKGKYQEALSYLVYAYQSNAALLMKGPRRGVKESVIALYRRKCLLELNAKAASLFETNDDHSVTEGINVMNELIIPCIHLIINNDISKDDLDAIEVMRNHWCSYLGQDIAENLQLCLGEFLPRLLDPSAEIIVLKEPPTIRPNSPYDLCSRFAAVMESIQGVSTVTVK

Compound	IC50	pIC50
CC(C)N1CC2CN(Cc3ccc(Cl)cc3)CCN2Cc2ccccc21 (stereo not given)	> 50 µM (inactive)	
COC(=O)c1cc(C)sc1NC(=O)c1cccc(OC)c1OC	> 50 µM (inactive)	
CCOc1cc(N2CCOCC2)c(OCC)cc1NC(=O)c1cc(-c2ccncc2)nc2ccccc12		5.14
N#Cc1cc2c(nc1SCC(=O)NCc1ccccc1)CCCC2	> 50 µM (inactive)	
CSc1cccc(NC(=O)CCc2ccc3nc(NC(C)=O)sc3c2)c1	> 50 µM (inactive)	
CCCN1C=NS(=O)(=O)c2cc(C(=O)Nc3ccc(OC)c(Cl)c3)ccc21		4.45
Cc1ccc(C(=O)Nc2ccc(S(=O)(=O)N3CCCC3)cc2)cc1Br		5.48
CCc1noc(Cn2cnc3c4ccccc4n(CC(=O)NC4CCCCC4)c3c2=O)n1		4.40
CC(C)c1ccc(C(C(=O)NC2CCCCC2)N(C(=O)c2cnccn2)c2cccc(F)c2)cc1 (stereo not given)		4.64
COc1cc(C(=O)NC(Cc2ccccc2)c2nc3ccccc3[nH]2)cc(OC)c1OC (stereo not given)		5.42
COc1cccc(-c2cc(=O)[nH]c(Nc3nc(C)c4ccccc4n3)n2)c1		4.59
CC(C)Cn1cc(OC(=O)c2ccc(F)cc2)c2c1nc(-c1ccc(F)cc1)n1c3ccccc3nc21	> 50 µM (inactive)	
Cc1ccc(C(=O)Nc2ccc3nccnc3c2)cc1		5.01
COc1ccc(/C=C/C(=O)Nc2cccc(S(=O)(=O)Nc3ccccc3Cl)c2)c(OC)c1		4.67
COc1ccc(C2SCC(=O)Nc3c2c(=O)[nH]n3C2CCCCCC2)cc1 (stereo not given)		4.59
O=C(Nc1ccccc1)c1nc2c(s1)CCN(C(=O)c1ccccc1)CC2	> 50 µM (inactive)	
CCCCCC(O)c1c(O)cc2c(c1O)C(=O)c1c(O)cc(O)cc1C2=O (stereo not given)	> 50 µM (inactive)	
COc1ccccc1NC(=O)c1cc(-c2ccccn2)nc2ccccc12		4.56
CC(C)c1cc(Nc2cccc(F)c2)n2nc(-c3cccnc3)nc2n1		4.61
CCC(=O)OCc1cnc(C)c2oc(=O)c(-c3nc(-c4ccccc4)no3)cc12	> 50 µM (inactive)	
COc1ccc(-n2ccc(=O)c(-c3nc(-c4ccccc4F)no3)n2)cc1OC	> 50 µM (inactive)	
COC1=CC(=O)c2c(O)c(C)c(CC(C)=O)c(O)c2C1=O	> 50 µM (inactive)	
Cc1ccc(Cn2nnc(C(=O)NCc3ccco3)c2-n2cccc2)cc1		5.19
COC1=C(C2=C(OC)C(=O)c3cc4c(c(O)c3C2=O)C(=O)OC(C)C4)C(=O)c2c(cc3c(c2O)C(=O)OC(C)C3)C1=O (stereo not given)		5.98
O=c1c2cnc3nc(-c4cccnc4)nn3c2ccn1CCc1ccccc1	> 50 µM (inactive)	

Compound	IC50	pIC50
CCOc1ccc(NC(=O)Cn2c(=O)n(CCC(=O)NCc3ccco3)c(=O)c3ccccc32)cc1		5.35
CC1Oc2cc3c(-c4c(O)cc(O)c5c(O)c6c(cc45)OC(C)C(C)C6=O)c(O)cc(O)c3c(O)c2C(=O)C1C (stereo not given)		5.66
CNC(=O)c1cc2c(=O)n3cccc(C)c3nc2n1Cc1ccccc1		4.73
O=C(Nc1ccc(F)cc1F)NC1Cc2ccccc2C1		4.36
O=C(Nc1cccc(Cl)c1)c1ncn2c1CNS(=O)(=O)c1ccccc1-2		4.87
COc1cc(C2SCC(=O)Nc3c2c(-c2ccccc2)nn3-c2ccccc2)cc(OC)c1OC (stereo not given)		5.47
O=C(Nc1ccc2c(c1)OCCO2)C1CCN(C(=O)c2cc(-c3cccnc3)n[nH]2)CC1		4.79
CC(NC(=O)c1ccccc1)c1nc2ccccc2n1CC(=O)Nc1ccc2c(c1)OCO2 (stereo not given)		5.68
Cc1ccc(C(=O)NCc2ccc(C(=O)Nc3cccc(C)c3)o2)cc1		4.55
CCOc1ccc(-c2nc(C#N)c(N3CCN(C(=O)c4ccccc4C)CC3)o2)cc1		4.92
CC(C)CC[C@H]1O[C@@H](CC(=O)O)Cc2cc3c(c(O)c21)C(=O)c1sc(=O)n(C)c1C3=O		5.56
Cc1nn(-c2cc(N3CCOCC3)ncn2)c(C)c1CCC(=O)Nc1ccc(C(C)C)cc1		4.64
O=C(COC(=O)c1cc(Cl)ccc1O)Nc1ccc2c(c1)OCCO2		4.61
Cc1ccccc1N1C(=O)/C(=C\c2cccn2C)c2ccccc2C1=O	> 50 µM (inactive)	
Cn1c(=O)cc(SCC(=O)NC2CCN(Cc3ccccc3)CC2)c2ccc(Cl)cc21		4.50
COc1ccc(NC(=O)c2[nH]nc3c2COc2ccccc2-3)c(OC)c1		5.16
CC(=O)NCc1nc(-c2ccc3c(c2)nc(C)c(=O)n3C2CCCC2)no1	> 50 µM (inactive)	
COc1ccc(/C=C/C(=O)Nc2ccc3c(c2)OCCO3)cc1Br		5.87
O=C(Nc1ccc(Cl)cc1F)c1cc(-c2ccccn2)n[nH]1		5.77
CC(C)OC(=O)c1cc2c(ccn2-c2ccc(F)cc2)n1CC(=O)NC1CCCCC1		4.56
O=C(COC(=O)CCc1ccc(S(=O)(=O)N2CCOCC2)cc1)Nc1ccc2c(c1)OCCO2		5.14
O=C(CCC1CCCCC1)Nc1ccccc1C(=O)N1CCOCC1	> 50 µM (inactive)	
COC(=O)c1ccc(C(=O)Nc2cc3ccccc3cc2NC(=O)c2ccc(C(=O)OC)cc2)cc1		5.56
COc1ccc(-c2cc(-c3nnc(CSc4nc5ccccc5n4C)o3)c3ccccc3n2)cc1OC	> 50 µM (inactive)	
O=C(NC(Cc1ccccc1)c1nc2ccccc2[nH]1)C1CC1 (stereo not given)	> 50 µM (inactive)	

Compound	IC50	pIC50
COc1ccc(C(=O)C2CC(=O)Nc3c2c(C)nn3-c2ccc(Br)cc2)cc1 (stereo not given)		4.70
O=C(CSc1nc2ccccc2n1S(=O)(=O)c1ccc(Br)cc1)Nc1ccc([N+](=O)[O-])cc1Cl		5.06
CCc1nc(-c2cccc(NC(=O)c3ccc(C#N)cc3F)c2)no1		4.44
Cn1c(CCN2CCCC2)nc2cc(NS(=O)(=O)c3ccccc3)ccc21	> 50 µM (inactive)	
CCN(CC)c1cc(C)c2cc(NC(=O)c3ccncc3)ccc2n1		5.23
CCc1ccc(-n2nc(C)c3c2NC(=O)CC3C(=O)c2ccc3c(c2)OCCO3)cc1 (stereo not given)		4.58
Cc1ccc([N+](=O)[O-])cc1S(=O)(=O)Nc1cc2sc(=O)oc2c2ccccc12		4.87
O=C(NCc1ccco1)c1ccc2c(c1)N(Cc1cccc(F)c1)C(=O)c1ccccc1S2	> 50 µM (inactive)	
Cc1nc(-c2ccc3c(c2)nnn3CCN2CCOCC2)no1	> 50 µM (inactive)	
O=C(NCc1ccncc1)C1CCN(c2cncnc2N2CCCCC2)CC1		5.74
CC(OC(=O)c1ccc2c(c1)OCCO2)C(=O)NCC1CCCCC1 (stereo not given)		4.58
Cc1ccc(NC(=O)C2CCN(c3cncnc3N3CCCC3)CC2)cc1		6.34
Cc1c(CC(=O)Nc2nn[nH]n2)c(=O)oc2cc3c(cc12)CCC1(CCCCC1)O3	> 50 µM (inactive)	
CCOC(=O)c1cnn(-c2ccc(C(=O)Nc3ccc(C)c(Cl)c3)cc2)c1N		5.26
CC(C)C1Cc2c(sc3nc(SCC(=O)Nc4cccc5ccccc45)nc(N)c23)CO1 (stereo not given)		4.41
Cc1cc(NC(=O)c2nnn(-c3ccccc3Cl)c2C)no1		5.83
N#Cc1c(-c2cccs2)cc(-c2cccs2)[nH]c1=O	> 50 µM (inactive)	
Cc1cccc(C(=O)OCC(=O)Nc2ccc3[nH]c(=O)[nH]c3c2)c1C		5.31
Cn1c(CCNC(=O)c2[nH]nc3c2CCc2ccccc2-3)nc2ccccc21		4.63
COCCNC(=O)c1ccc(-c2ccc(N3CCCCC3)nc2)cc1		4.71
O=C(NCc1ccc(F)cc1)C1CCN(c2cnc(N3CCCCC3)nc2)CC1		6.16
CC(C)N1C[C@@H]2C[C@H](NS(=O)(=O)c3cccc(C#N)c3)CN2Cc2ccccc21	> 50 µM (inactive)	
COc1cccc(-c2cc(C(=O)N3CCN(c4ccc(N5CCOCC5)nn4)CC3)[nH]n2)c1		5.42
O=C(NC1CCCCC1)c1cc2c(cn1)[nH]c1ccccc12		5.60
COc1ccc(OC)c(NC(=O)c2cc(Cl)ccc2OC)c1		5.78

Compound	IC50	pIC50
COc1cc(OC)cc(-n2c(=O)c3sccc3n(CC(=O)Nc3ccc(C)cc3)c2=O)c1		5.16
Cc1ccc(Cn2nnc(-c3ccccc3Cl)n2)cc1		4.86
COC(=O)c1ccc2c(=O)n(CCCCCC(=O)NCCc3ccc(S(N)(=O)=O)cc3)c(=O)[nH]c2c1		5.06
O=C(NCc1ccc(-c2nc3cnccc3o2)cc1)c1cc2ccccc2o1		5.35
COc1cccc(CCNC(=O)CCn2c(=O)c(C)nc3cc(C)c(C)cc32)c1	> 50 µM (inactive)	
O=C(NCC(c1cccnc1)N1CCc2ccccc2C1)C(=O)Nc1ccc2c(c1)OCO2 (stereo not given)		4.54
Cc1nn(-c2nc3ccccc3[nH]2)c2c1C(c1cccs1)CC(=O)N2 (stereo not given)	> 50 µM (inactive)	
O=C(Cc1cccnc1)Nc1ccc(N2CCN(C3CCCCC3)C2=O)nc1	> 50 µM (inactive)	
COc1ccc(NC(=O)C2CCN(c3cncnc3N(C)C)CC2)cc1OC		5.17
COc1ccccc1CNC(=O)c1ccccc1OCc1ccccc1Cl	> 50 µM (inactive)	
CCCc1nc2sc3c(NCc4ccco4)ncnc3c2c2c1CCC2		> 7.30
c1coc(CNc2nc3ccccc3n3nnnc23)c1	> 50 µM (inactive)	
COc1ccc(NC2c3ccccc3C(=O)N2c2ccccn2)cc1 (stereo not given)	> 50 µM (inactive)	
Cc1cc(C)c(NC(=O)Cn2c(=O)n(CCC(=O)NCc3ccc4c(c3)OCO4)c(=O)c3sccc32)c(C)c1		5.57
Cc1nn(C)c2c1[C@@H](c1ccc(F)cc1)[C@H](NC(=O)c1ccccc1)C(=O)N2		4.80
CC(c1ccccc1)c1nc(-c2ccc(=O)[nH]c2)no1 (stereo not given)		5.42
NS(=O)(=O)c1cccc(NS(=O)(=O)c2ccc(/C=C/C(=O)OCC(=O)c3ccc(Br)cc3)cc2)c1	> 50 µM (inactive)	
CCOC(=O)c1cnc(C(F)(F)F)nc1Sc1n[nH]c(-c2cccs2)n1	> 50 µM (inactive)	
COc1ccccc1NC(=O)c1nn(-c2cccc(F)c2)c(OC)cc1=O		4.60
CC1OC2CC(O)C1(O)C1=C2C(=O)c2c(O)c3c(c(O)c2C1=O)[C@H](C)O[C@H]1CC(=O)O[C@@H]31 (stereo not given in full)	> 50 µM (inactive)	
COc1ccc(NC(=O)C2CC(=O)Nc3c(-c4ccc(Cl)cc4)cnn32)c(OC)c1 (stereo not given)		4.84
CN(C)c1ccc(CCN2CCc3nc4cccnc4cc3C2)cc1	> 50 µM (inactive)	
Cc1cc(/C=C2/C(=N)N3C(c4ccccc4)=CSC3=NC2=O)c(C)n1-c1ccc2ccccc2c1	> 50 µM (inactive)	
Cc1nc2cc(NC(=O)C3CN(C(=O)c4cnccn4)C3)ccc2s1		5.02
O=C(Nc1cccc(C(F)(F)F)c1)N1CCCn2c(nc3ccccc32)C1		4.69
